Data on one molecule can be found in ChEMBL document CHEMBL1148466, “Self-association of okadaic acid upon complexation with potassium ion” (J Med Chem, 2004).

Assay [1] has as its target Serine/threonine-protein phosphatase PP1-gamma catalytic subunit (Homo sapiens, UniProt P36873). As to the kind of experiment: Inhibitory activity against serine/threonine protein phosphatase 1(PP1).
Assay [2] is described as follows: Inhibitory activity against serine/threonine protein phosphatase 2 (PP2A).

SMILES strings stand for the structures.

Serine/threonine-protein phosphatase PP1-gamma catalytic subunit, sequence (P36873 whole entry): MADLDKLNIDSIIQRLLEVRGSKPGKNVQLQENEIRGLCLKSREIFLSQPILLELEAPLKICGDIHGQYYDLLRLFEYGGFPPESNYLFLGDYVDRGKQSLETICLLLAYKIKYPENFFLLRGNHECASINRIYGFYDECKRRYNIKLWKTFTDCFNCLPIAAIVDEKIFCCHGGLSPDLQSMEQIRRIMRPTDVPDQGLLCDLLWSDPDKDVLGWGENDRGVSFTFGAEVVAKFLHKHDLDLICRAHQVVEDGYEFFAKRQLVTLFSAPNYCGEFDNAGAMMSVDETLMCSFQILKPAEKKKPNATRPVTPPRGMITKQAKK

What is called IC50 is the point on the concentration scale where inhibition reaches its midpoint. Read a high IC50 as weaker potency. For the molecule `C=C1[C@@H](O)[C@@H]2O[C@]3(CC[C@H](/C=C/[C@@H](C)[C@@H]4CC(C)=C[C@@]5(O[C@H](C[C@@](C)(O)C(=O)O)CC[C@H]5O)O4)O3)CC[C@H]2O[C@@H]1[C@@H](O)C[C@H](C)[C@H]1O[C@@]2(CCCCO2)CC[C@H]1C` [OKADAIC ACID], the values for the IC50 in assay [1] and in assay [2] were 20 nM and 0.2 nM, respectively.
